According to patent publication US20030027981A1, “Urokinase-type plasminogen activator receptor” (priority 1989, published 2003):

B1: PAI-2: human type-2 plasminogen activator inhibitor purified from U937 cells (protein, UniProt P05120 1-415, looked up)
Plasminogen activator …: MEDLCVANTLFALNLFKHLAKASPTQNLFLSPWSISSTMAMVYMGSRGSTEDQMAKVLQFNEVGANAVTPMTPENFTSCGFMQQIQKGSYPDAILQAQAADKIHSSFRSLSSAINASTGNYLLESVNKLFGEKSASFREEYIRLCQKYYSSEPQAVDFLECAEEARKKINSWVKTQTKGKIPNLLPEGSVDGDTRMVLVNAVYFKGKWKTPFEKKLNGLYPFRVNSAQRTPVQMMYLREKLNIGYIEDLKAQILELPYAGDVSMFLLLPDEIADVSTGLELLESEITYDKLNKWTSKDKMAEDEVEVYIPQFKLEEHYELRSILRSMGMEDAFNKGRANFSGMSERNDLFLSEVFHQAMVDVNEEGTEAAAGTGGVMTGRTGHGGPQFVADHPFLFLIMHKITNCILFFGRFSSP

How the values were obtained:
[1] = tested on: u-PA; assay: u-PA activity in medium of HT-1080 cultures (immunocapture assay); assay type: cell-based, human
Procedure: Cell culture supernatants were assayed for pro-u-PA and active u-PA by the following modification of an immunocapture method (Stephens et al., 1988; Stephens et al., 1987). Microtitre wells of polystyrene immunoplates (type 269620, A/S Nunc, Roskilde, Denmark) were coated overnight at 37° C. with 50 μl of a solution of goat IgG antibodies to human u-PA (cat. #398, American Diagnostica). The coating solution contained 2.5 μg of IgG per ml of […] sodium carbonate (pH 9.8). After rinsing, the wells were treated with conditioned medium ([…]) for 2 hours at 23° C., then rinsed again. Half the wells were then treated with 50 μl of freshly prepared 2 μM p-nitrophenyl guanidinobenzoate (NPGB, Sigma) (Danø, K., and E. Reich, “Plasminogen activator from cells transformed by an oncogenic virus—Inhibitors of the activator reaction”, Biochim. Biophys. Acta 566: 138-151, 1979) for 20 minutes at 37° C. The other half (controls) received 50 μl of rinsing buffer (0.05% Tween 20 in PBS). After rinsing, u-PA was assayed in all the wells by addition of 40 μl of plasminogen solution (100 μg/ml in assay buffer consisting of 50 mM sodium glycinate (pH 7.8), 0.1% Triton X-100, 0.1% gelatin and 10 mM 6-aminocaproic acid which also contained a very low concentration of plasmin (10 ng/ml)), and incubation took place for 30 minutes at 37° C. This concentration of plasmin in the plasminogen incubation was sufficient to enable full realization of the potential activity of pro-u-PA (cf. Petersen et al., 1988). The plasmin produced by this incubation was assayed by its thioesterase activity (Green, G. D. G., and E. Shaw, “Thiobenzyl benzyloxycarbonyl-L-lysinate, substrate for a sensitive colorimetric assay for trypsin-like enzymes”, Anal. Biochem. 93: 223-226, 1979) by the addition of 200 μl of a solution containing 200 mM potassium phosphate (pH 7.5), 200 MM KCl, 0.1% Triton X-100, 220 μM Z-lysine thiobenzyl ester (Peninsula Laboratories, Belmont, Calif.) and 220 μM 5,5′-dithiobis(2-nitrobenzoic acid) (Sigma). This mixture was incubated for 30 minutes at 37° C., and the absorbancies of the wells were read at 405 nm. Active u-PA (60,000 IU/mg) was purchased from Calbiochem-Behring (La Jolla, Calif.) and pro-u-PA (potential activity 90,000 IU/mg) was obtained from American Diagnostica.
The following additions were made to cell layers growing in MEM medium (0.5 ml) containing 10% heat-inactivated and plasminogen-depleted fetal calf serum: native human plasminogen (Plg, 40 μg/ml); anti-catalytic monoclonal antibody to human u-PA (10 μg/ml); anti-catalytic monoclonal antibody to human t-PA (10 μg/ml); PAI-2 (titration equivalent of 3.6 UI u-PA/ml); anti-catalytic monoclonal antibody to human plasmin (20 μg/ml); aprotinin (200 KIU/ml); tranexamic acid (TA, as shown). The cultures were incubated for the times shown before assay of cell-bound plasmin. The incubation with plasminogen was used as the 100% control for bound plasmin.
Confluent cell layers in serum medium (0.5 ml) were preincubated for 1 hour at 37° C. with an anti-catalytic monoclonal antibody to human u-PA (10 μg/ml) or PAI-2 (titration equivalent of 3.6 IU u-PA/ml). The cells were then rinsed three times with serum-free MEM medium before incubation for 3 hours at 37° C. with MEM medium containing 10% heat-inactivated and plasminogen-depleted fetal calf serum and native human plasminogen (Plg, 40 μg/ml). The incubation with plasminogen was used as the 100% control for bound plasmin while the control for u-PA was the incubation without plasminogen.

[2] = tested on: cell-bound pro-u-PA; assay: Pro-u-PA index of cell-bound u-PA on HT-1080 cells (immunocapture assay with NPGB step); assay type: cell-based, human; conditions: for Pro-u-PA index (%): 2 h, serum medium, all with Plg 40 μg/ml, aprotinin (200 KIU/ml), anti-Plg-1 (20 μg/ml), TA (100 μM) rows also with anti-PAI-1 10 μg/ml
Procedure: FIG. 27. Activation of cell-bound u-PA proenzyme in serum medium after the addition of plasminogen. Confluent layers of HT-1080 cells were incubated with MEM medium containing 10% heat-inactivated and plasminogen-depleted fetal calf serum and native human plasminogen (40 μg/ml). After the time intervals shown, aprotinin (200 KIU/ml) was added and the rinsed cells were treated with acid-glycine to recover the bound fraction of u-PA. The u-PA in the neutralized eluate was assayed by an immunocapture method, using an NPGB inactivation step to determined the pro-u-PA index (see Methods).
Cell culture supernatants were assayed for pro-u-PA and active u-PA by the following modification of an immunocapture method (Stephens et al., 1988; Stephens et al., 1987). Microtitre wells of polystyrene immunoplates (type 269620, A/S Nunc, Roskilde, Denmark) were coated overnight at 37° C. with 50 μl of a solution of goat IgG antibodies to human u-PA (cat. #398, American Diagnostica). The coating solution contained 2.5 μg of IgG per ml of […] sodium carbonate (pH 9.8). After rinsing, the wells were treated with conditioned medium ([…]) for 2 hours at 23° C., then rinsed again. Half the wells were then treated with 50 μl of freshly prepared 2 μM p-nitrophenyl guanidinobenzoate (NPGB, Sigma) (Danø, K., and E. Reich, “Plasminogen activator from cells transformed by an oncogenic virus—Inhibitors of the activator reaction”, Biochim. Biophys. Acta 566: 138-151, 1979) for 20 minutes at 37° C. The other half (controls) received 50 μl of rinsing buffer (0.05% Tween 20 in PBS). After rinsing, u-PA was assayed in all the wells by addition of 40 μl of plasminogen solution (100 μg/ml in assay buffer consisting of 50 mM sodium glycinate (pH 7.8), 0.1% Triton X-100, 0.1% gelatin and 10 mM 6-aminocaproic acid which also contained a very low concentration of plasmin (10 ng/ml)), and incubation took place for 30 minutes at 37° C. This concentration of plasmin in the plasminogen incubation was sufficient to enable full realization of the potential activity of pro-u-PA (cf. Petersen et al., 1988). […] This mixture was incubated for 30 minutes at 37° C., and the absorbancies of the wells were read at 405 nm. […]
Pro-u-PA and active u-PA bound to the cell layer were recovered for immunocapture assays by the same method as was used in the metabolic labelling (see above). […] For conditioned medium and cell-bound u-PA, the u-PA activity assayed after NPGB treatment was expressed as a percentage of the total activity obtained without NPGB treatment, and this percentage used as an index of pro-u-PA content (pro-u-PA index). […]

[3] = 3 h, serum medium with Plg 40 μg/ml, additions as b555, control without Plg = 100
[4] = 17 h, serum medium with Plg 40 μg/ml, additions as b555, control without Plg = 100

Row | Molecule | u-PA activity in medium (%) ([1]; 3 h, Plg 40 μg/ml + TA 10 μM) | u-PA activity in medium (%) ([1]; 3 h, Plg 40 μg/ml + TA 100 μM) | u-PA activity in medium (%) ([1]; 17 h, Plg 40 μg/ml + TA 10 μM) | u-PA activity in medium (%) ([1]; 17 h, Plg 40 μg/ml + TA 100 μM) | Pro-u-PA index (%) [2] [%] | u-PA activity in medium (%) [1, 3] [%] | u-PA activity in medium (%) [1, 4] [%] | Proportion of total surface-bound u-PA present as pro-u-PA ([2]; cells incubated with human plasminogen 40 μg/ml in serum medium, plasminogen-free cultures approximately 90%) | u-PA activity in medium (%) ([1]; cells preincubated 1 h with inhibitor, rinsed, then 3 h with Plg 40 μg/ml in serum medium)
1 | NC[C@H]1CC[C@H](C(=O)O)CC1 [TA, tranexamic acid] | 116 | 92 | 87 | 95 | 88 | – | – | – | –
2 | aprotinin | – | – | – | – | 93 | 93 | 99 | – | –
3 | Plg: native human plasminogen (glutamic acid N-terminal) purified from human plasma on lysine-Sepharose | – | – | – | – | 50 | 111 | 83 | approximately 10% | –
4 | B1 | – | – | – | – | – | 89 | 77 | – | 86
